Measurements published in ChEMBL document CHEMBL4431386, “Potent selective monoamine oxidase B inhibition by maackiain, a pterocarpan from the roots of Sophora flavescens” (Bioorg Med Chem Lett, 2016).

Key:
[1] = molecular target: T1, Amine oxidase [flavin-containing] B (Mus musculus, UniProt Q8BW75); assay: Inhibition of mouse MAO-B preincubated for 15 mins followed by addition of kynuramine as substrate measured after 30 mins by fluorometric analysis
T1 sequence (Q8BW75 whole entry): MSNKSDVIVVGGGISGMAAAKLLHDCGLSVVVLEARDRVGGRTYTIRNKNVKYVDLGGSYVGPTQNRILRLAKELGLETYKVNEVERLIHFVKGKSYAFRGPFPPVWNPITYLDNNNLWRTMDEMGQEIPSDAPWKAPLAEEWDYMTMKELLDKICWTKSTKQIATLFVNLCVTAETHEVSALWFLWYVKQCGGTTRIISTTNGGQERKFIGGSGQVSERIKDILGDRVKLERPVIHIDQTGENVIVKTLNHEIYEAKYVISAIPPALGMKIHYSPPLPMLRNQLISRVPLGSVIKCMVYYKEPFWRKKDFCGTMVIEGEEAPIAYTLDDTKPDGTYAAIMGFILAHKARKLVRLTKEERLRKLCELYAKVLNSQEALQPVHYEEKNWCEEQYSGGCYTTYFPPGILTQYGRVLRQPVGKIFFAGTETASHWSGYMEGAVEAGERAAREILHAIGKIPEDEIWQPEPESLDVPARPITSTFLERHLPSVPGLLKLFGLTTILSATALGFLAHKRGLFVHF

[2] = molecular target: T2, Amine oxidase [flavin-containing] A (Homo sapiens, UniProt P21397); assay: Inhibition of recombinant human MAO-A expressed in baculovirus infected BTI insect cells preincubated for 10 mins followed by addition of kynuramine as substrate
T2 sequence (P21397 whole entry): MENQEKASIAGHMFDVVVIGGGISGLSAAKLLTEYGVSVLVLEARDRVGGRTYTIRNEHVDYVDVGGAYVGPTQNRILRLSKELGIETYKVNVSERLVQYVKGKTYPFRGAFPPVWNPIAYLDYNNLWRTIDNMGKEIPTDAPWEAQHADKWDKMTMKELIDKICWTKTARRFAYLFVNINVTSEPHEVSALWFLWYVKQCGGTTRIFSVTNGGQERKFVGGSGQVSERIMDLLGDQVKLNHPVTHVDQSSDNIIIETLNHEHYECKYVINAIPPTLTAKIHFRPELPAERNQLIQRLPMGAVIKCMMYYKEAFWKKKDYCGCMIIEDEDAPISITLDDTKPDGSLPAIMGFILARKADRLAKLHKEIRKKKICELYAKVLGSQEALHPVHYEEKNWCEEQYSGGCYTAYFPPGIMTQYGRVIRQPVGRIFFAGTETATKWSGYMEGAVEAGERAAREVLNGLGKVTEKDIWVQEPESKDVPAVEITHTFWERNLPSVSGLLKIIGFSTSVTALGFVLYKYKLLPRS

[3] = molecular target: T3, Amine oxidase [flavin-containing] B (Homo sapiens, UniProt P27338); assay: Inhibition of recombinant human MAO-B expressed in baculovirus infected BTI insect cells preincubated for 10 mins followed by addition of benzylamine as substrate; type: cell-based
T3 sequence (P27338 whole entry): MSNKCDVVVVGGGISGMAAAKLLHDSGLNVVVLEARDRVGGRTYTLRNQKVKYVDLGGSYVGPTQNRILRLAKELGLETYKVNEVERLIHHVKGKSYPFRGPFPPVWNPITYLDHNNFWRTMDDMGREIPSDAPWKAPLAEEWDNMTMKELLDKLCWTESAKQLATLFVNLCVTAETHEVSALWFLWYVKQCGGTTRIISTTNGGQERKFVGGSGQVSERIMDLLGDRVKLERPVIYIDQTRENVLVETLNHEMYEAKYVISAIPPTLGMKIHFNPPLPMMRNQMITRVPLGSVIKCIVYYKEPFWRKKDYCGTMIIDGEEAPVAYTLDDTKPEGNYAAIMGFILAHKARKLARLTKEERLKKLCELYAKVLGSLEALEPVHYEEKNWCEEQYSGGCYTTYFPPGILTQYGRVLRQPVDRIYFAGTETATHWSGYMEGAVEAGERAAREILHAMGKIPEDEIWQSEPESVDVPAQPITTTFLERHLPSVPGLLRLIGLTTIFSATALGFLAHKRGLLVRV

Homo sapiens = species on record: Homo sapiens; assay: Selectivity index, ratio of IC50 for recombinant human MAO-A expressed in baculovirus infected BTI insect cells to IC50 for recombinant human MAO-B expressed in baculovirus infected BTI insect cells
[4] = molecular target: T3, Amine oxidase [flavin-containing] B; assay: Time-dependent inhibition of recombinant human MAO-B expressed in baculovirus infected BTI insect cells at 20 uM pretreated with compound up to 30 mins followed by addition of benzylamine as substrate
[5] = molecular target: T3, Amine oxidase [flavin-containing] B; assay: Inhibition of recombinant human MAO-B expressed in baculovirus infected BTI insect cells assessed as residual activity at 20 uM preincubated for 10 mins followed by addition of 2 mM of benzylamine as substrate; conditions: read-out: Activity
[6] = molecular target: T3, Amine oxidase [flavin-containing] B; assay: Reversible inhibition of recombinant human MAO-B expressed in baculovirus infected BTI insect cells assessed as residual activity at 20 uM preincubated for 10 mins followed by addition of 2 mM of benzylamine as substrate and further addition of 2 mM of benzylamine at the end of first reaction; conditions: read-out: Activity
[7] = molecular target: T4, Amine oxidase [flavin-containing] A (Mus musculus, UniProt Q64133); assay: Inhibition of mouse MAO-A preincubated for 15 mins followed by addition of kynuramine as substrate measured after 30 mins by fluorometric analysis
T4 sequence (Q64133 whole entry): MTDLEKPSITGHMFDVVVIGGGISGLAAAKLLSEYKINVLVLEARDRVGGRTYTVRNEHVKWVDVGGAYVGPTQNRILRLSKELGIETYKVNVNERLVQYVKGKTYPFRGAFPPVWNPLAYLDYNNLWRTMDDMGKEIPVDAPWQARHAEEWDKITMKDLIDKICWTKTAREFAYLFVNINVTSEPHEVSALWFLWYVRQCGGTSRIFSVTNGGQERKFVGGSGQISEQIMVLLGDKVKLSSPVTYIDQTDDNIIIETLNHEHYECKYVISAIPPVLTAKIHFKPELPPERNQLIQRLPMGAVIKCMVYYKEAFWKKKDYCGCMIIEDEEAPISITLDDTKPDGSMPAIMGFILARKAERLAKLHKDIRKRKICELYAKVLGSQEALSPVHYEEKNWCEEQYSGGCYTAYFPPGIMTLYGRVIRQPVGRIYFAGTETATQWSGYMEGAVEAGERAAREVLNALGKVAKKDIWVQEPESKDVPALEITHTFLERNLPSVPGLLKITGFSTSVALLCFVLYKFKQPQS

[8] = molecular target: T3, Amine oxidase [flavin-containing] B; assay: Time-dependent inhibition of recombinant human MAO-B expressed in baculovirus infected BTI insect cells at 8 uM pretreated with compound up to 30 mins followed by addition of benzylamine as substrate
[9] = molecular target: T3, Amine oxidase [flavin-containing] B; assay: Inhibition of recombinant human MAO-B expressed in baculovirus infected BTI insect cells assessed as residual activity at 8 uM preincubated for 10 mins followed by addition of 2 mM of benzylamine as substrate; conditions: read-out: Activity
[10] = molecular target: T3, Amine oxidase [flavin-containing] B; assay: Reversible inhibition of recombinant human MAO-B expressed in baculovirus infected BTI insect cells assessed as residual activity at 8 uM preincubated for 10 mins followed by addition of 2 mM of benzylamine as substrate and further addition of 2 mM of benzylamine at the end of first reaction; conditions: read-out: Activity
[11] = molecular target: T3, Amine oxidase [flavin-containing] B; assay: Competitive inhibition of recombinant human MAO-B expressed in baculovirus infected BTI insect cells using benzylamine as substrate by Lineweaver-Burk plot analysis
[12] = molecular target: T3, Amine oxidase [flavin-containing] B; assay: Time-dependent inhibition of recombinant human MAO-B expressed in baculovirus infected BTI insect cells at 1.5 uM pretreated with compound up to 30 mins followed by addition of benzylamine as substrate
[13] = molecular target: T3, Amine oxidase [flavin-containing] B; assay: Inhibition of recombinant human MAO-B expressed in baculovirus infected BTI insect cells assessed as residual activity at 1.5 uM preincubated for 10 mins followed by addition of 2 mM of benzylamine as substrate; conditions: read-out: Activity
[14] = molecular target: T3, Amine oxidase [flavin-containing] B; assay: Reversible inhibition of recombinant human MAO-B expressed in baculovirus infected BTI insect cells assessed as residual activity at 1.5 uM preincubated for 10 mins followed by addition of 2 mM of benzylamine as substrate and further addition of 2 mM of benzylamine at the end of first reaction; conditions: read-out: Activity
[15] = molecular target: T1, Amine oxidase [flavin-containing] B; assay: Competitive inhibition of mouse brain mitochondrial MAO-B using kynuramine as substrate by Lineweaver-Burk plot analysis

SMILES | IC50 [1] | IC50 [2] | IC50 [3] | Ratio IC50 (Homo sapiens) | further results
COc1ccc2c(c1O)OC[C@H]1c3cc4c(cc3O[C@@H]21)OCO4 | – | 20.3 µM | 10.3 µM | 2 | TDI [4]: Not Active; activity at 20 µM [5]: 26.3%; activity at 20 µM [6]: 54.9%
CC(C)=CCc1c(O)c(CC=C(C)C)c2c(c1O)C(=O)C[C@@H](c1ccc(O)cc1O)O2 | – | > 100 µM | > 100 µM | – | –
O=c1c(-c2ccc(O)cc2)coc2cc(O)cc(O)c12 [GENISTEIN] | – | – | – | – | TDI [8]: Not Active; activity at 8 µM [9]: 25.3%; activity at 8 µM [10]: 59.5%
Oc1ccc2c(c1)OC[C@H]1c3cc4c(cc3O[C@@H]21)OCO4 [MAACKIAIN] | – | 85.8 µM | 0.68 µM | 126 | Ki [11]: 0.054 µM; TDI [12]: Not Active; activity at 1.5 µM [13]: 28.7%; activity at 1.5 µM [14]: 66%
COC(=O)/C=C/C=C/c1ccc2c(c1)OCO2 [METHYL PIPERATE] | – | – | – | – | Ki [15]: 1.3 µM

The next lines start with results.

IC50 [1] | IC50 [2] | IC50 [3] | SMILES | Ratio IC50 (Homo sapiens) | further results
0.5 µM | – | – | C=C(C)[C@H](O)CC/C(C)=C/COc1ccc2ccc(=O)oc2c1 | – | –
0.6 µM | – | – | CC(C)=CCC/C(C)=C/COc1ccc2ccc(=O)oc2c1 | – | –
– | 38.8 µM | > 100 µM | CC(C)=CCc1c(O)cc(O)c2c1O[C@H](c1ccc(O)cc1)CC2=O | < 0.39 | –
0.8 µM | – | – | COc1ccc(-c2coc3cc(O)c(CC=C(C)C)c(O)c3c2=O)cc1 | – | –
11 µM | 31.2 µM | 25.8 µM | COc1ccc(-c2coc3cc(O)ccc3c2=O)cc1 [FORMONONETIN] | 1.2 | IC50 [7]: 21.2 µM
